Results published in patent US20200291018A1, “TAM KINASE INHIBITORS” (SYROS PHARMACEUTICALS, INC., priority 2017, published 2020).
Structures can show the parent of a compound that is named as a salt.

Experiments:
TYRO3 = biological target: T1, TYRO3 (Homo sapiens, UniProt Q06418); experiment: TR-FRET kinase activity assay, TYRO3; assay type: biochemical; settings: ATP at Km, 60 minutes
T1 sequence (Q06418 41-890): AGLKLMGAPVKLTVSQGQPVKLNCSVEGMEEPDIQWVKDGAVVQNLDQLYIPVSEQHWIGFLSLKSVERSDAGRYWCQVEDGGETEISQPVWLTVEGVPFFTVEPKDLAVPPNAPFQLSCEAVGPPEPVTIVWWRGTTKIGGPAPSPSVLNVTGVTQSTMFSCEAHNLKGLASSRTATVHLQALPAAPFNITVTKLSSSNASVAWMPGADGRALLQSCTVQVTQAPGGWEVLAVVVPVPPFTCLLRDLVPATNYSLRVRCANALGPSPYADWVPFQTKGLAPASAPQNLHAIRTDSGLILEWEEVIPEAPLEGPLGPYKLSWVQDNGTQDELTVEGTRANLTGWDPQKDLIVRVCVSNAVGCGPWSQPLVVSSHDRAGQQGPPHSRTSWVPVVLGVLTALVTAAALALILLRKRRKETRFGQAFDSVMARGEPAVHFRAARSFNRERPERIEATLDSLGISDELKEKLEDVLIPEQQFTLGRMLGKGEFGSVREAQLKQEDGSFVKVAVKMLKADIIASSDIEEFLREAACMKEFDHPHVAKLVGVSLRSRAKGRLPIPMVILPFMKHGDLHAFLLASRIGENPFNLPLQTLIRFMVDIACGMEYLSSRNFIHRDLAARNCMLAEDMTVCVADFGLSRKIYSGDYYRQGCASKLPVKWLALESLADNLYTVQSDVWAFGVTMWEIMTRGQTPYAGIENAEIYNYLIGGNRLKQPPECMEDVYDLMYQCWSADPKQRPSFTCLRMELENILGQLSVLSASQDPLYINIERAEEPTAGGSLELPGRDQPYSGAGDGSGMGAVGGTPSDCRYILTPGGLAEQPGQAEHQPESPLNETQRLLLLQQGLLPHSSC
Method in brief: (§1)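 Enzyme, fluorescent-labeled peptide substrate and compound were mixed, then ATP was added at each enzyme's Km. Buffer was 50 mM HEPES pH 7.5, 10 mM MgCl2, 1 mM EGTA, 0.01% Brij 35, 1 mM DTT at RT. After 60 min, EDTA quench and 30 min with Eu-anti-phosphotyrosine-site antibody; TR-FRET read gave IC50.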

MERTK = biological target: T2, MERTK (Homo sapiens, UniProt Q12866); experiment: TR-FRET kinase activity assay, MERTK; assay type: biochemical; settings: for IC50: TR-FRET activity assay, ATP at Km, 60 minutes, read-out: Mer IC50; for Mer/Flt3 ratio (FLT3 IC50/Mer IC50): ratio calculated as FLT3 IC50/Mer IC50
T2 sequence (Q12866 21-999): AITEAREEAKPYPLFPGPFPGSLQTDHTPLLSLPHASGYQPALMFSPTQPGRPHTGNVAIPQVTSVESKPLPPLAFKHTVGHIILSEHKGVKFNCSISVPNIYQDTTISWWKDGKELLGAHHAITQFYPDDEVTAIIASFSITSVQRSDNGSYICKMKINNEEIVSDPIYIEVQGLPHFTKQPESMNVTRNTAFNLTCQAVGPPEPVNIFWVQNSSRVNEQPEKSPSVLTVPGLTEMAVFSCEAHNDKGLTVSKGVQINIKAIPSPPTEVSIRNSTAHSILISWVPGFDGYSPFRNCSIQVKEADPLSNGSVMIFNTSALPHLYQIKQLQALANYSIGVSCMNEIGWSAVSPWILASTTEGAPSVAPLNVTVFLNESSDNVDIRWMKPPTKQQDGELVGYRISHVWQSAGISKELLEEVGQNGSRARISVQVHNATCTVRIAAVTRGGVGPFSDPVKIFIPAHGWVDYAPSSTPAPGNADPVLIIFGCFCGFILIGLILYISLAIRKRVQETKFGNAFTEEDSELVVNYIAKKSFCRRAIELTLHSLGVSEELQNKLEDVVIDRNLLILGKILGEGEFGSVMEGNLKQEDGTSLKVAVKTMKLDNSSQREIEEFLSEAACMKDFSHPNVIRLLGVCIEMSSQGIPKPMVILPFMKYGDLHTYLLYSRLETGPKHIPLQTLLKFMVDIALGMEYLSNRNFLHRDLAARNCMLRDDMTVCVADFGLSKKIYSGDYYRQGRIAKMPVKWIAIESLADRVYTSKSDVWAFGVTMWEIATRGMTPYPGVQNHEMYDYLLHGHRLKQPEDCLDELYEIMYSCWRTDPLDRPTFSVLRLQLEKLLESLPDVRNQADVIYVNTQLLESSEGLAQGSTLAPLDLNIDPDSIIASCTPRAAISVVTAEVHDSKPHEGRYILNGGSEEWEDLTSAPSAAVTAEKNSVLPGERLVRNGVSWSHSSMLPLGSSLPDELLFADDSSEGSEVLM
Method in brief: as §1

Compound | IC50 (TYRO3) [nM] | IC50 (MERTK) [nM] | Mer/Flt3 ratio (FLT3 IC50/Mer IC50) (MERTK)
CCCCNc1ncc2c(OC3CCN(C)CC3)ncc([C@H]3CC[C@H](O)CC3)c2n1 [Compound 131] | ≤ 100 | ≤ 100 | + (a ratio of >2.0 and <10)
CCCC(C)Nc1ncc2c(O[C@H]3CC[C@@H](O)CC3)ncc([C@H]3CC[C@H](O)CC3)c2n1 (stereo partly drawn) [Compound 148] | ≤ 100 | ≤ 100 | +++ (a ratio of >100)
O[C@H]1CC[C@H](c2cnc(OC3CCNCC3)c3cnc(NC4CCC(F)(F)CC4)nc32)CC1 [Compound 164] | 100 to 1000 | ≤ 100 | ++ (a ratio of between 10 and 100)
CCCCNc1ncc2c(NCc3ccc(F)cc3)ncc([C@H]3CC[C@H](O)CC3)c2n1 [Compound 103, 4-[2-(butylamino)-5-[(4-fluorophenyl)methylamino]pyrido[4,3-d]pyrimidin-8-yl]cyclohexanol hydrochloride] | ≤ 100 | ≤ 100 | + (a ratio of >2.0 and <10)
O[C@H]1CC[C@H](c2cnc(OC3CCOCC3)c3cnc(NC4CCCC4)nc32)CC1 [Compound 132] | ≤ 100 | ≤ 100 | ++ (a ratio of between 10 and 100)
CC(C)Nc1ncc2c(OC3CCNCC3)ncc([C@H]3CC[C@H](O)CC3)c2n1 [Compound 135] | ≤ 100 | ≤ 100 | +++ (a ratio of >100)
CCCCNc1ncc2c(OC3CCNCC3)ncc([C@H]3CC[C@H](O)CC3)c2n1 [Compound 129] | ≤ 100 | ≤ 100 | + (a ratio of >2.0 and <10)
CCCC(C)Nc1ncc2c(OC3CCOCC3)ncc([C@H]3CC[C@H](O)CC3)c2n1 (stereo partly drawn) [Compound 133] | ≤ 100 | ≤ 100 | +++ (a ratio of >100)
CCC[C@H](C)Nc1ncc2c(OC3CCNCC3)ncc([C@H]3CC[C@H](O)CC3)c2n1 [Compound 171] | ≤ 100 | ≤ 100 | +++ (a ratio of >100)
CC1(C)CC(Nc2ncc3c(OC4CCOCC4)ncc([C@H]4CC[C@H](O)CC4)c3n2)C1 [Compound 144] | 100 to 1000 | ≤ 100 | + (a ratio of >2.0 and <10)
O[C@H]1CC[C@H](c2cnc(OC3CCNCC3)c3cnc(N[C@H]4CCOC4)nc32)CC1 [Compound 136] | ≤ 100 | ≤ 100 | ++ (a ratio of between 10 and 100)
COCCN1[C@@H]2CC[C@H]1C[C@H](Oc1ncc([C@H]3CC[C@H](O)CC3)c3nc(N[C@@H](C)CC(F)(F)F)ncc13)C2 [Compound 432] | ≤ 100 | ≤ 100 | +++ (a ratio of >100)
COC[C@@H](C)Nc1ncc2c(OC3CCOCC3)ncc([C@H]3CC[C@H](O)CC3)c2n1 [Compound 145] | ≤ 100 | 100 to 1000 | ++ (a ratio of between 10 and 100)
CCCC(C)Nc1ncc2c(=O)n(C3CCN(S(C)(=O)=O)CC3)cc([C@H]3CC[C@@H](O)CC3)c2n1 (stereo partly drawn) [Compound 138] | ≤ 100 | ≤ 100 | +++ (a ratio of >100)
CCC(C)Nc1ncc2c(OC3CCOCC3)ncc([C@H]3CC[C@H](O)CC3)c2n1 (stereo partly drawn) [Compound 140] | ≤ 100 | ≤ 100 | +++ (a ratio of >100)
CCCC(C)Nc1ncc2c(OC3CCC(OC)CC3)ncc([C@H]3CC[C@H](O)CC3)c2n1 (stereo partly drawn) [Compound 147] | ≤ 100 | ≤ 100 | +++ (a ratio of >100)
CC(=O)N1[C@@H]2CC[C@H]1C[C@H](Oc1ncc([C@H]3CC[C@H](O)CC3)c3nc(N[C@@H](C)CC(F)(F)F)ncc13)C2 [Compound 436] | ≤ 100 | ≤ 100 | +++ (a ratio of >100)
CCCC(C)Nc1ncc2c(OC3CCS(=O)(=O)CC3)ncc([C@H]3CC[C@H](O)CC3)c2n1 (stereo partly drawn) [Compound 141] | ≤ 100 | ≤ 100 | +++ (a ratio of >100)
CCCC(C)Nc1ncc2c(OC3CCN(CC(=O)N(C)C)CC3)ncc([C@H]3CC[C@H](O)CC3)c2n1 (stereo partly drawn) [Compound 172] | ≤ 100 | ≤ 100 | +++ (a ratio of >100)
Cc1nccn1CCNc1ncc2c(OC3CCNCC3)ncc([C@H]3CC[C@H](O)CC3)c2n1 [Compound 163] | ≤ 100 | 1000 to 10000 | + (a ratio of >2.0 and <10)

Now from value to compound:

IC50 (TYRO3) [nM] | IC50 (MERTK) [nM] | Mer/Flt3 ratio (FLT3 IC50/Mer IC50) (MERTK) | Compound
> 10000 | ≤ 100 | ++ (a ratio of between 10 and 100) | C[C@H](Nc1ncc2c(OC3CCNCC3)ncc([C@H]3CC[C@H](O)CC3)c2n1)c1ccccc1 [Compound 189]
≤ 100 | ≤ 100 | +++ (a ratio of >100) | CC(C)C(C)Nc1ncc2c(OC3CCNCC3)ncc([C@H]3CC[C@H](O)CC3)c2n1 (stereo partly drawn) [Compound 178]
> 10000 | ≤ 100 | +++ (a ratio of >100) | CCCC(C)Nc1ncc2c(=O)n(C3CCN(C(=O)CN(C)C)CC3)cc([C@H]3CC[C@H](O)CC3)c2n1 (stereo partly drawn) [Compound 192]
> 10000 | ≤ 100 | +++ (a ratio of >100) | CCCC(C)Nc1ncc2c(=O)n(CC3CCN(C)CC3)cc([C@H]3CC[C@H](O)CC3)c2n1 (stereo partly drawn) [Compound 193]
≤ 100 | ≤ 100 | +++ (a ratio of >100) | CCCC(C)Nc1ncc2c(O[C@H]3C[C@@H](O)C3)ncc([C@H]3CC[C@H](O)CC3)c2n1 (stereo partly drawn) [Compound 176]
≤ 100 | ≤ 100 | +++ (a ratio of >100) | COC(=O)N[C@H]1C[C@@H](Oc2ncc([C@H]3CC[C@H](O)CC3)c3nc(N[C@@H](C)CC(F)(F)F)ncc23)C1 [Compound 435]
> 10000 | ≤ 100 | ++ (a ratio of between 10 and 100) | O[C@H]1CC[C@H](c2cnc(OC3CCNCC3)c3cnc(NC4CCCCC4)nc32)CC1 [Compound 183]
> 10000 | ≤ 100 | +++ (a ratio of >100) | CCCC(C)Nc1ncc2c(=O)n(C3CCN(C(C)C)CC3)cc([C@H]3CC[C@H](O)CC3)c2n1 (stereo partly drawn) [Compound 186]
> 10000 | ≤ 100 | ++ (a ratio of between 10 and 100) | CCCC(C)Nc1ncc2c(OC3CCOCC3)ncc([C@H]3CC[C@H](N(C)C)CC3)c2n1 (stereo partly drawn) [Compound 185]
≤ 100 | ≤ 100 | ++ (a ratio of between 10 and 100) | CCCC(C)Nc1ncc2c(O[C@H]3C[C@H](O)C3)ncc([C@H]3CC[C@H](O)CC3)c2n1 (stereo partly drawn) [Compound 187]
